Assay results taken from ChEMBL document CHEMBL1201862, “PubChem BioAssay data set” (2004).
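How tested: cells in 96-well plates exposed to compound for 48 hours at five concentrations. GI50 is the concentration that inhibits growth by half.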 Calls of active or inactive are those of the source. Rule as the data show it: active = GI50 up to about 1.1 µM and inactive = higher.

Experiments:
Experiment in all cases: inhibition of tumour cell growth, NCI panel, 48 h
[1] = system: RPMI-8226
[2] = system: Malme-3M
[3] = system: EKVX
[4] = system: SN12C
[5] = system: A549
[6] = system: U-251
[7] = system: MCF7
[8] = system: HCC 2998
[9] = system: NCI-H522
[10] = system: UO-31
[11] = system: OVCAR-5
[12] = system: LOX IMVI
[13] = system: HCT-116
[14] = system: SW-620
[15] = system: MDA-N
[16] = system: DU-145
[17] = system: K562
[18] = system: HOP-92
[19] = system: Hs-578T

Row | SMILES | GI50 [1] | GI50 [2] | GI50 [3] | GI50 [4] | GI50 [5] | GI50 [6] | GI50 [7] | GI50 [8] | GI50 [9] | GI50 [10] | GI50 [11] | GI50 [12] | GI50 [13] | GI50 [14] | GI50 [15] | GI50 [16] | GI50 [17] | GI50 [18] | GI50 [19]
1 | O=C(c1cscc1CCc1ccccc1)c1cscc1CCc1ccccc1 | > 100 µM (inactive) | > 100 µM (inactive) | > 100 µM (inactive) | > 100 µM (inactive) | > 100 µM (inactive) | > 100 µM (inactive) | > 100 µM (inactive) | > 100 µM (inactive) | > 100 µM (inactive) | > 100 µM (inactive) | > 100 µM (inactive) | > 100 µM (inactive) | > 100 µM (inactive) | > 100 µM (inactive) | > 100 µM (inactive) | > 100 µM (inactive) | > 100 µM (inactive) |  | 
2 | CCOC(=O)COc1cc(-c2ccccc2)nc2cc(F)ccc12 | > 100 µM (inactive) | > 100 µM (inactive) | > 100 µM (inactive) | > 100 µM (inactive) | > 100 µM (inactive) | > 100 µM (inactive) | > 100 µM (inactive) | > 100 µM (inactive) |  |  | > 100 µM (inactive) | > 100 µM (inactive) | > 100 µM (inactive) | > 100 µM (inactive) | > 100 µM (inactive) | > 100 µM (inactive) | > 100 µM (inactive) | 52 µM (inactive) | 
3 | C/C(=C/CC[C@]1(CO)CC[C@]2(CO)[C@H](CC[C@@H]3[C@@]4(C)CC[C@H](OC5OCC(O)C(O)C5OC5OC(CO)C(O)C(O)C5O)C(C)(C)[C@@H]4CC[C@]32C)[C@H]1O)CO (stereo partly drawn) | > 100 µM (inactive) | 92.3 µM (inactive) | > 100 µM (inactive) | > 100 µM (inactive) | > 100 µM (inactive) | > 100 µM (inactive) | > 100 µM (inactive) |  | > 100 µM (inactive) | > 100 µM (inactive) | > 100 µM (inactive) | > 100 µM (inactive) | > 100 µM (inactive) | > 100 µM (inactive) | > 100 µM (inactive) | > 100 µM (inactive) | > 100 µM (inactive) | > 100 µM (inactive) | > 100 µM (inactive)
4 | C/C=C(/C)c1cnc(CC(C)C)c(=O)[nH]1 | 0.35 µM (active) |  | > 100 µM (inactive) | > 100 µM (inactive) | > 100 µM (inactive) | > 100 µM (inactive) |  | > 100 µM (inactive) |  | > 100 µM (inactive) | > 100 µM (inactive) | > 100 µM (inactive) | > 100 µM (inactive) | > 100 µM (inactive) | > 100 µM (inactive) | > 100 µM (inactive) | > 100 µM (inactive) | > 100 µM (inactive) | > 100 µM (inactive)
5 | Clc1ccc(Cl)c(SCCCN2CCNCC2)c1 | 19.8 µM (inactive) | 15.8 µM (inactive) | 16.9 µM (inactive) | 19.2 µM (inactive) | 20.6 µM (inactive) | 16.4 µM (inactive) | 18.4 µM (inactive) | 3.61 µM (inactive) | 16.3 µM (inactive) | 14.4 µM (inactive) | 15.5 µM (inactive) | 14.9 µM (inactive) | 18.3 µM (inactive) | 22.3 µM (inactive) |  | 15.8 µM (inactive) | 14.6 µM (inactive) | 15 µM (inactive) | 16.1 µM (inactive)
6 | COc1ccc(NC(C)=O)cc1C1CCC(=O)N1 (stereo not drawn) | > 100 µM (inactive) | > 100 µM (inactive) | > 100 µM (inactive) | > 100 µM (inactive) | > 100 µM (inactive) | > 100 µM (inactive) | > 100 µM (inactive) | > 100 µM (inactive) | > 100 µM (inactive) | > 100 µM (inactive) | > 100 µM (inactive) | > 100 µM (inactive) | > 100 µM (inactive) | > 100 µM (inactive) |  | > 100 µM (inactive) | > 100 µM (inactive) | > 100 µM (inactive) | > 100 µM (inactive)
7 | COC(=O)[C@]1(C)CCC[C@@]2(C)C1CC[C@]13C=C(C(C)C)[C@H](CC21)CC3(Cl)C#N (stereo partly drawn) |  | 36.6 µM (inactive) | 31.5 µM (inactive) | 51.1 µM (inactive) | 57.5 µM (inactive) | 19.8 µM (inactive) | 27.4 µM (inactive) | 29.8 µM (inactive) | 26.5 µM (inactive) | 64.3 µM (inactive) | > 100 µM (inactive) |  | 14.9 µM (inactive) | 37.6 µM (inactive) |  | 43.5 µM (inactive) | 19.5 µM (inactive) | > 100 µM (inactive) | > 100 µM (inactive)
8 | O=S1(=O)OCCOS(=O)(=O)C1(Br)Br | > 100 µM (inactive) | > 100 µM (inactive) | > 100 µM (inactive) | > 100 µM (inactive) | > 100 µM (inactive) |  |  | > 100 µM (inactive) | > 100 µM (inactive) | 62.7 µM (inactive) |  |  | > 100 µM (inactive) | > 100 µM (inactive) |  |  | > 100 µM (inactive) | > 100 µM (inactive) | 
9 | Cc1cn(CC(=S)NCCc2c[nH]c3ccccc23)c(=O)[nH]c1=O | 46.5 µM (inactive) | 69.5 µM (inactive) | 17 µM (inactive) | > 100 µM (inactive) | 74.1 µM (inactive) | > 100 µM (inactive) | 63.7 µM (inactive) |  |  | 87.1 µM (inactive) | 33 µM (inactive) | > 100 µM (inactive) | 76.7 µM (inactive) | > 100 µM (inactive) | 48 µM (inactive) | > 100 µM (inactive) | 39.1 µM (inactive) | > 100 µM (inactive) | 84.1 µM (inactive)
10 | COc1cccc(C2SC(=N)Nc3c2c(C)nn3C(=O)c2ccccc2O)c1 (stereo not drawn) | > 10 µM (inactive) | 0.581 µM (active) | > 9.14 µM (inactive) | > 3.35 µM (inactive) | 1.75 µM (inactive) | > 2.65 µM (inactive) | > 3.11 µM (inactive) | > 10 µM (inactive) | > 5.41 µM (inactive) | > 10 µM (inactive) | > 6.73 µM (inactive) | > 4.26 µM (inactive) | > 2.14 µM (inactive) | > 7.14 µM (inactive) | > 2.28 µM (inactive) | > 2.44 µM (inactive) |  | > 2.08 µM (inactive) | 
11 | NCc1ccc(-c2ccc(CN)s2)s1 | > 100 µM (inactive) | > 100 µM (inactive) | > 100 µM (inactive) | > 100 µM (inactive) | > 100 µM (inactive) | > 100 µM (inactive) | 44 µM (inactive) | > 100 µM (inactive) | > 100 µM (inactive) | > 100 µM (inactive) | 56.2 µM (inactive) | > 100 µM (inactive) | > 100 µM (inactive) | > 100 µM (inactive) | > 100 µM (inactive) | > 100 µM (inactive) | > 100 µM (inactive) | > 100 µM (inactive) | 
12 | COC1=C(OC)C(=O)C(Cc2c(Cl)nc3sccn23)=C(C)C1=O | 2.34 µM (inactive) | 1.85 µM (inactive) | 7.11 µM (inactive) | 13.4 µM (inactive) | 11.6 µM (inactive) | 12.6 µM (inactive) | 10.2 µM (inactive) | 15.7 µM (inactive) | 6.15 µM (inactive) | 10.6 µM (inactive) | 16.9 µM (inactive) | 2.96 µM (inactive) | 13.6 µM (inactive) | 13.7 µM (inactive) |  | 13.5 µM (inactive) | 11 µM (inactive) |  | 11.4 µM (inactive)
13 | Cc1ccc(-c2c(C#N)c(-c3ccc(Cl)cc3)c(C#N)c(=O)n2NS(=O)(=O)c2ccccc2)cc1 | 18.4 µM (inactive) | > 100 µM (inactive) | 77.4 µM (inactive) | 95.1 µM (inactive) | 68.4 µM (inactive) | 74.8 µM (inactive) | 51.2 µM (inactive) | 37.1 µM (inactive) | 38.1 µM (inactive) |  | > 100 µM (inactive) | 42.3 µM (inactive) | 59 µM (inactive) | > 100 µM (inactive) | > 100 µM (inactive) |  | 88.1 µM (inactive) | 25.2 µM (inactive) | 24.4 µM (inactive)
14 | C[C@H]1[C@H](N2CCCC2)O[Si](C(C)(C)C)(C(C)(C)C)[C@@H]1C | > 100 µM (inactive) | 59.2 µM (inactive) | > 100 µM (inactive) | > 100 µM (inactive) | > 100 µM (inactive) | > 100 µM (inactive) | > 100 µM (inactive) | > 100 µM (inactive) | > 100 µM (inactive) | > 100 µM (inactive) | > 100 µM (inactive) | > 100 µM (inactive) | > 100 µM (inactive) | > 100 µM (inactive) | > 100 µM (inactive) |  | 97.3 µM (inactive) | < 0.01 µM (active) | 
15 | C/C1=C\CC[C@@]2(C)O[C@@H]2[C@H]2OC(=O)C(C)C2C[C@H]1O (stereo partly drawn) | > 100 µM (inactive) | > 100 µM (inactive) | > 100 µM (inactive) | > 100 µM (inactive) | > 100 µM (inactive) | > 100 µM (inactive) | > 100 µM (inactive) | > 100 µM (inactive) | > 100 µM (inactive) | > 100 µM (inactive) | > 100 µM (inactive) | > 100 µM (inactive) | > 100 µM (inactive) | > 100 µM (inactive) |  | > 100 µM (inactive) | > 100 µM (inactive) | > 100 µM (inactive) | 10.3 µM (inactive)
16 | C=CN(C=C)C(=O)Cn1cc(-c2ccccc2)nn1 | > 100 µM (inactive) | > 100 µM (inactive) | > 100 µM (inactive) | > 100 µM (inactive) | > 100 µM (inactive) | > 100 µM (inactive) | > 100 µM (inactive) | > 100 µM (inactive) | > 100 µM (inactive) |  | > 100 µM (inactive) | > 100 µM (inactive) | > 100 µM (inactive) | > 100 µM (inactive) |  | > 100 µM (inactive) | > 100 µM (inactive) | > 100 µM (inactive) | 
